From ChEMBL document CHEMBL1139541 (J Med Chem, 2005)

How the values were obtained:
[1] = biological target: Melatonin receptor type 1A (Homo sapiens, UniProt P48039); assay: Inhibition of 2-[125I]iodomelatonin binding to human melatonin receptor type 1A (MT1) expressed in […] cells; type: cell-based
[2] = biological target: T1, Melatonin receptor type 1B (Homo sapiens, UniProt P49286); assay: Inhibition of 2-[125I]iodomelatonin binding to human melatonin receptor MT2 expressed in […] cells; type: cell-based
T1 sequence (P49286 whole entry): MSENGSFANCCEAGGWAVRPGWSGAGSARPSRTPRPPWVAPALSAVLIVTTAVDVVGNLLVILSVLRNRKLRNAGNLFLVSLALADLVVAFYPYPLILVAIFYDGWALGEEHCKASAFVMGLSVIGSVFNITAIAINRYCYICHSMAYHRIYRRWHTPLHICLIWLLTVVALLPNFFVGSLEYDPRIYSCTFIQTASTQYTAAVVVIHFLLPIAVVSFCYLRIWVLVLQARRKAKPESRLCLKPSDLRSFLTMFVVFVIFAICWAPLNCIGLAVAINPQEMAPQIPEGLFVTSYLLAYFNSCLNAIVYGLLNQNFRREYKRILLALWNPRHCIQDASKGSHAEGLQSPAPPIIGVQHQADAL

[3] = biological target: T2, Melatonin receptor type 1B (Homo sapiens) (UniProt P49286); assay: Intrinsic activity in [35S]GTP-gamma-S, binding at human melatonin receptor MT2 relative to melatonin; type: functional
T2 sequence (whole entry): T1 sequence (P49286 whole entry)

Melatonin receptor type 1A, sequence (P48039 whole entry): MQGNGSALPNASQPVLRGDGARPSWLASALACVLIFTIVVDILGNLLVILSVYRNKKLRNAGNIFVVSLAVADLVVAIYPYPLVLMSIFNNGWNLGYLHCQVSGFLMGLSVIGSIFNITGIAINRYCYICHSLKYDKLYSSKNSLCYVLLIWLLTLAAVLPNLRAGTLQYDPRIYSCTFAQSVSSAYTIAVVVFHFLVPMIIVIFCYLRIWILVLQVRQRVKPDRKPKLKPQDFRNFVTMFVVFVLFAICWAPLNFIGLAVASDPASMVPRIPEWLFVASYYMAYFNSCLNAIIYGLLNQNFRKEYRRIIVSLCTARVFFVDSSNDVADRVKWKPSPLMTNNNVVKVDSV

| SMILES | Ki [1] [nM] | Ki [2] [nM] | IA [3] |
| --- | --- | --- | --- |
| COc1cc2c(cc1OC)C(CC(c1ccccc1)c1ccccc1)N(C(C)=O)CC2 (centres undefined) | > 1000 | 9.77 | – |
| CCC(=O)NC1Cc2ccccc2C(c2ccccc2)C1 (centres undefined) | 105 | 0.0158 | – |
| CCC(=O)NCc1cc2c(OC)cccc2n1Cc1c(C)cccc1C | > 10000 | 6030 | 0.16 |
| CCC(=O)NCc1cc2c(OC)cccc2n1C(=O)c1ccc(Cl)cc1 | > 10000 | 1820 | -0.08 |
| CCC(=O)NCc1cc2c(OC)cccc2n1Cc1ccc(Cl)cc1 | – | – | 0.01 |
| CCC(=O)NCc1cc2c(OC)cccc2n1S(=O)(=O)c1ccccc1 | > 10000 | 288 | 0.08 |
